# Measured values: US20190086302A1, “COMPOSITION FOR PREPARING BIOLOGICAL MATERIAL HAVING EXCELLENT LIGHT TRANSMISSIVITY AND USE OF COMPOSITION” (RIKEN, priority 2016, published 2019)
# Where a name gives a salt, the structure may show the parent alone. Read-outs that look alike come from different tables or passages of the source.
# Assays:
# [1] = Absorbance of chemical solution at 400 nm (OD400); assay type: physicochemical
# pH of chemical solution = assay type: physicochemical
# bovine coagulated blood = test: Decoloring screening: heme eluted from PFA-fixed bovine coagulated blood, absorbance of supernatant; conditions: Table 2, 10 wt % aqueous solution, 37° C. overnight; for 700 nm calibrated 420 nm Average: decoloring activity OD420-OD700 of supernatant
# Method: A high-throughput screening system for evaluating the decoloring ability of various compounds was constructed. The screening system involved adding an aqueous solution of each compound to bovine coagulated blood and then measuring the absorbance of heme collected in the supernatant.
# Specifically, to bovine blood, an equal amount of 8% PFA solution was added, and reacted at 4° C. overnight. The mixed liquid was centrifuged at 1500×g for 5 minutes, and the supernatant containing PFA was discarded. Then, the same amount of PBS as the original volume of blood was added to prepare a coagulated blood sample. To 150 μL of 10 wt % aqueous solution of each compound, 50 μL of the coagulated blood sample was added, and reacted at 37° C. overnight. The reaction solution was centrifuged at 1500×g for 5 minutes, and then 100 μL of the supernatant was added to a plate so as to be subjected to absorbance measurement. A sample which is suspended in water instead of being dissolved in the water has a weak decoloring effect, but none the less has a high absorbance value. […]
# mouse hemisphere = test: Delipidation and clearing of mouse hemisphere; conditions: basic chemicals with pH of 11 to 12; 10 wt %, 37° C., 3 days, then CUBIC-2A
# Method: Subsequently, the delipidation efficiency of the series of compounds in mammalian tissue was examined. […] The transmittance of the brain tissue was measured, and then the brain tissue was washed with PBS and was disrupted. […] It was thus shown that the above basic chemicals and some neutral chemicals were better than the detergents from the viewpoint of permeability with respect to tissue. […] Subsequently, the mouse hemisphere was subjected to refractive index adjustment with CUBIC-2A. […] Accordingly, #0414 (N-butyldiethanolamine) was selected as a highly-efficient delipidation chemical.
# mouse spleen = test: Decoloring of mouse spleen (OD420 of supernatant, transmissive image); conditions: 10 wt % solution, 37° C. overnight
# mouse brain = test: Swelling and clearing of delipidated mouse brain; conditions: brain delipidated with CUBIC-1, shaken 3 days
# [2] = Table 2, absorbance of chemical solution at 400 nm
compound,measurement,setting,value
"CNCC(O)c1cccc(O)c1.Cl (racemic) [#1142, DL-Phenylephrine hydrochloride]",OD400,[1],0.060
same,pH,pH of chemical solution,6.7
"Cl.O=C(O)CCP(CCC(=O)O)CCC(=O)O [#0197, Tris(2-carboxyethyl)phosphine hydrochloride]",400 nm,[1]; [2],0.047
same,pH,"pH of chemical solution; Table 2, chemical solution",2.3
"CN(C)CCSSCCN(C)C [#0295, Bis(2-dimethylaminoethyl) disuflide dihydrochloride]",OD400,[1]; Table 3,0.047
same,pH,pH of chemical solution; Table 3,5.3
"CCCC[N+](CCCC)(CCCC)Cc1ccccc1.[Cl-] [#0307, Benzyltributylammonium chloride]",OD400,[1]; Table 3,0.048
same,pH,pH of chemical solution; Table 3,7.0
"CCCCCCCCCCCCCC[N+](C)(C)Cc1ccccc1 [#0362, Benzyldimethyltetradecylammonium chloride hydrate]",Integrated value 500-700 nm Average,bovine coagulated blood,1.74
same,700 nm calibrated 420 nm Average,bovine coagulated blood,2.13
same,400 nm,[1]; [2],0.053
same,pH,"pH of chemical solution; Table 2, chemical solution",6.6
"CN(CCCN)CCCN [#0380, 3,3′-Diamino-N-methyldipropylamine]",400 nm,[1]; [2],0.065
same,pH,"pH of chemical solution; Table 2, chemical solution",13.0
"OCCNCc1ccccc1 [#0389, N-Benzylethanolamine]",transparency of mouse hemispheres,mouse hemisphere,selected
"NCC1CCOCC1 [#0407, 4-Aminomethyltetrahydropyran]",400 nm,[1]; [2],0.049
"CCCCN(CCO)CCO [#0414, N-Butyldiethanolamine]",transparency of mouse hemispheres,mouse hemisphere,selected
"[Cl-].c1ccc(C[P+](c2ccccc2)(c2ccccc2)c2ccccc2)cc1 [#0425, Benzyltriphenylphosphonium chloride]",400 nm,[1]; [2],0.048
same,pH,"pH of chemical solution; Table 2, chemical solution",9.3
"CC(C)(C)CC(C)(C)c1ccc(OCCOCC[N+](C)(C)Cc2ccccc2)cc1 [#0441, Benzethonium chloride]",400 nm,[1],0.049
same,pH,pH of chemical solution,6.4
"C1CCC2=NCCCN2CC1 [#0594, 1,8-Diazabicyclo[5.4.0]-7-undecene]",400 nm,[1]; [2],0.05
same,pH,"pH of chemical solution; Table 2, chemical solution",13.5
"CCCCCCCCCCCC[n+]1ccccc1 [#0635, 1-Dodecylpyridinium chloride]",Integrated value 500-700 nm Average,bovine coagulated blood,3.67
same,700 nm calibrated 420 nm Average,bovine coagulated blood,3.66
"Cc1cc(=O)n(-c2ccccc2)n1C [#0640, 2,3-Dimethyl-1-phenyl-5-pyrazolone]",400 nm,[1]; [2],0.048
same,OD400,[1]; Table 3,0.048
same,pH,"pH of chemical solution; Table 2, chemical solution",7.5
same,pH,pH of chemical solution; Table 3,7.5
"C[n+]1ccc(-c2cc[n+](C)cc2)cc1 [#0652, 1,1′-Dimethyl-4,4′-bipyridinium dichloride]",400 nm,[1]; [2],0.082
same,pH,"pH of chemical solution; Table 2, chemical solution",6.0
"CCC(N)CCN (centres unmarked) [#0678, 1,3-Diaminopentane]",400 nm,[1]; [2],0.048
"CCCCCCCCCCCC[N+](C)(C)CCCS(=O)(=O)O [#0694, Dodecyldimethyl(3-sulfopropyl)ammonium hydroxide]",400 nm,[1]; [2],0.55
same,400 nm,"[1]; Table 2, absorbance of chemical solution at 400 nm, listed as #0661",0.051
same,pH,"pH of chemical solution; Table 2, chemical solution, listed as #0661",6.5
"NCCCNCCCN [#0785, 3,3′-Diaminodipropylamine]",400 nm,[1]; [2],0.05
same,OD400,[1]; Table 3,0.05
same,pH,"pH of chemical solution; Table 2, chemical solution",13.8
same,pH,pH of chemical solution; Table 3,13.8
"CN(C)CCOC(c1ccccc1)c1ccccc1.Cl [#0909, Diphanhydramine hydrochloride]",OD400,[1]; Table 3,0.048
same,pH,pH of chemical solution; Table 3,7.0
"CCn1ccnc1 [#0938, 1-Ethylimidazole]",mouse spleen decoloring activity,mouse spleen,highest mouse spleen decoloring activity
"NC[C@H](O)[C@@H](O)[C@H](O)[C@H](O)CO [#0956, D-Glucoomine (FocusClear ™), reference compound]",OD400,[1]; Table 3,0.280
"CCCCCCCCCCCC[N+](C)(C)C [#1021, Dodecyltrimethylammonium chloride]",400 nm,[1]; [2],0.048
same,pH,"pH of chemical solution; Table 2, chemical solution",7.5
"OCCN1CC1 [#1061, 1-(2-Hydroxyethyl)ethyleneimine]",400 nm,[1]; [2],0.048
same,pH,"pH of chemical solution; Table 2, chemical solution",13.1
"NCC(O)CN [#1062, 1,3-Diamino-2-propanol]",Integrated value 500-700 nm Average,bovine coagulated blood,0.50
"c1cnccn1 [#1085, Pyrazine]",400 nm,[1]; [2],0.051
same,pH,"pH of chemical solution; Table 2, chemical solution",8.6
"C1CCC2=[N+](CC1)CCCN2.O=C1N=C([O-])c2ccccc21 [#1181, Phtalimide DBU salt]",OD400,[1]; Table 3,0.049
same,pH,pH of chemical solution; Table 3,6.0
"CCCCCCCCCCCCCCCC[N+](C)(C)C [#1235, Hexadecyltrimethylammonium Chloride]",400 nm,[1],0.048
same,pH,pH of chemical solution,6.6
"CC(CN)CCCN (centres unmarked) [#1267, 2-Methyl-1,5-diaminopentane]",pH,"pH of chemical solution; Table 2, chemical solution",12.8
"CNC(=O)c1cccnc1 [#1283, N-Methylnicotinamide]",700 nm calibrated 420 nm Average,bovine coagulated blood,2.96
same,OD400,[1]; Table 3,0.003
"c1c[nH]cn1 [#1352, imidazole]",swelling of mouse brain,mouse brain,high-degree of swelling
"C[C@H](CCC(=O)[O-])[C@H]1CC[C@H]2[C@@H]3CC[C@@H]4C[C@H](O)CC[C@]4(C)[C@H]3C[C@H](O)[C@]12C.[Na+] [#1507, Sodium deoxycholate]",pH,"pH of chemical solution; Table 2, chemical solution, listed as #0562",8.3
"CCN(CC)CCO [#1575, 2-Diethylaminoethanol]",400 nm,[1]; [2],0.06
same,pH,"pH of chemical solution; Table 2, chemical solution",12.8
"Cc1cccc(C)c1NC1=NCCCS1.Cl [#1612, Xylazine hydrochloride]",OD400,[1]; Table 3,0.063
same,pH,pH of chemical solution; Table 3,6.8
"C[N+](C)(C)Cc1ccccc1.[OH-] [#03887, Benzyltrimethylammonium hydroxide]",400 nm,[1]; [2],0.054
same,pH,"pH of chemical solution; Table 2, chemical solution, listed as #0398",12.9
Dodacene-1 LAS (JIS K 3361-1990) [#0672],400 nm,[1]; [2],0.081
same,pH,"pH of chemical solution; Table 2, chemical solution",5.9
Hydrazine carbonate [#1052],OD400,[1],0.047
same,pH,pH of chemical solution,10.2
Tween ® 40 [#1465],400 nm,[1]; [2],0.083
same,pH,"pH of chemical solution; Table 2, chemical solution",6.4
